Measured values: PubChem BioAssay (NCI)
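How tested: cells in 96-well plates exposed to compound for 48 hours at five concentrations. GI50 marks 50% less growth. TGI denotes the concentration required for complete inhibition of growth.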

Key:
Assay in all cases: NCI-60 cell line screen, 48 h
PC-3 prostate = test system: PC-3 prostate
HCC-2998 colon = test system: HCC-2998 colon
SN12C renal = test system: SN12C renal
CAKI-1 renal = test system: CAKI-1 renal
MDA-MB-435 = test system: MDA-MB-435
MDA-MB-231 breast = test system: MDA-MB-231 breast
M14 melanoma = test system: M14 melanoma
K-562 leukemia = test system: K-562 leukemia
HCT-116 colon = test system: HCT-116 colon
SK-MEL-5 melanoma = test system: SK-MEL-5 melanoma
DU-145 prostate = test system: DU-145 prostate
MCF7 breast = test system: MCF7 breast
NCI-H226 lung = test system: NCI-H226 lung
SNB-19 CNS = test system: SNB-19 CNS
NCI/ADR-RES ovarian = test system: NCI/ADR-RES ovarian
KM12 colon = test system: KM12 colon
UO-31 renal = test system: UO-31 renal
A549 NSCLC = test system: A549 NSCLC
SF-268 CNS = test system: SF-268 CNS
LOX IMVI melanoma = test system: LOX IMVI melanoma
SW-620 colon = test system: SW-620 colon
HCT-15 colon = test system: HCT-15 colon
SF-539 CNS = test system: SF-539 CNS
IGROV1 ovarian = test system: IGROV1 ovarian
SNB-75 CNS = test system: SNB-75 CNS
OVCAR-8 ovarian = test system: OVCAR-8 ovarian
HT29 colon = test system: HT29 colon
TK-10 renal = test system: TK-10 renal
OVCAR-3 ovarian = test system: OVCAR-3 ovarian
SR leukemia = test system: SR leukemia
U251 CNS = test system: U251 CNS
MOLT-4 leukemia = test system: MOLT-4 leukemia
NCI-H23 lung = test system: NCI-H23 lung
NCI-H522 lung = test system: NCI-H522 lung
HL-60(TB) leukemia = test system: HL-60(TB) leukemia
EKVX NSCLC = test system: EKVX NSCLC
HOP-62 NSCLC = test system: HOP-62 NSCLC
A498 renal = test system: A498 renal
SF-295 CNS = test system: SF-295 CNS
RXF 393 renal = test system: RXF 393 renal
T-47D breast = test system: T-47D breast
786-0 renal = test system: 786-0 renal
HS 578T breast = test system: HS 578T breast
OVCAR-4 ovarian = test system: OVCAR-4 ovarian
OVCAR-5 ovarian = test system: OVCAR-5 ovarian
SK-MEL-2 melanoma = test system: SK-MEL-2 melanoma
BT-549 breast = test system: BT-549 breast
UACC-257 melanoma = test system: UACC-257 melanoma
MALME-3M melanoma = test system: MALME-3M melanoma
CCRF-CEM leukemia = test system: CCRF-CEM leukemia
NCI-H460 lung = test system: NCI-H460 lung
SK-OV-3 ovarian = test system: SK-OV-3 ovarian
COLO 205 colon = test system: COLO 205 colon
RPMI-8226 leukemia = test system: RPMI-8226 leukemia
HOP-92 NSCLC = test system: HOP-92 NSCLC
SK-MEL-28 melanoma = test system: SK-MEL-28 melanoma
ACHN renal = test system: ACHN renal
UACC-62 melanoma = test system: UACC-62 melanoma

For `Cc1cccc(/C=C/C(=O)Nc2ncc(Cc3cccc(C)c3)s2)c1`, the GI50 (PC-3 prostate) was 875 nM, the TGI (PC-3 prostate) was over 100000 nM and the GI50 (HCC-2998 colon) was 1680 nM. It also gave a TGI (HCC-2998 colon) of over 100000 nM, a GI50 (SN12C renal) of 1680 nM and a TGI (SN12C renal) of over 100000 nM. For the same compound, the GI50 (CAKI-1 renal) was 518 nM, the TGI (CAKI-1 renal) was over 100000 nM and the GI50 (MDA-MB-435) was 303 nM. It also gave a TGI (MDA-MB-435) of 1140 nM, a GI50 (MDA-MB-231 breast) of 2920 nM and a TGI (MDA-MB-231 breast) of over 100000 nM. The GI50 (M14 melanoma) was 568 nM, the TGI (M14 melanoma) was 1890 nM and the GI50 (K-562 leukemia) was 117 nM. For the same compound, the TGI (K-562 leukemia) was over 100000 nM, the GI50 (HCT-116 colon) was 1100 nM and the TGI (HCT-116 colon) was over 100000 nM. The GI50 (SK-MEL-5 melanoma) was 1230 nM, the TGI (SK-MEL-5 melanoma) was over 81100 nM and the GI50 (DU-145 prostate) was 876 nM. For the same compound, the TGI (DU-145 prostate) was over 100000 nM, the GI50 (MCF7 breast) was 820 nM and the TGI (MCF7 breast) was over 100000 nM. It also gave a GI50 (NCI-H226 lung) of 1280 nM, a TGI (NCI-H226 lung) of over 100000 nM and a GI50 (SNB-19 CNS) of 1400 nM. The TGI (SNB-19 CNS) was over 100000 nM, the GI50 (NCI/ADR-RES ovarian) was 869 nM and the TGI (NCI/ADR-RES ovarian) was over 100000 nM. The GI50 (KM12 colon) was 339 nM, the TGI (KM12 colon) was over 75000 nM and the GI50 (UO-31 renal) was 618 nM. The TGI (UO-31 renal) was over 100000 nM, the GI50 (A549 NSCLC) was 1020 nM and the TGI (A549 NSCLC) was over 100000 nM. The GI50 (SF-268 CNS) was 2540 nM, the TGI (SF-268 CNS) was over 100000 nM and the GI50 (LOX IMVI melanoma) was 841 nM. It also gave a TGI (LOX IMVI melanoma) of over 100000 nM, a GI50 (SW-620 colon) of 1130 nM and a TGI (SW-620 colon) of over 100000 nM. The GI50 (HCT-15 colon) was 585 nM, the TGI (HCT-15 colon) was over 100000 nM and the GI50 (SF-539 CNS) was 863 nM. It also gave a TGI (SF-539 CNS) of over 32500 nM, a GI50 (IGROV1 ovarian) of 1670 nM and a TGI (IGROV1 ovarian) of over 100000 nM. The GI50 (SNB-75 CNS) was 903 nM, the TGI (SNB-75 CNS) was over 20500 nM and the GI50 (OVCAR-8 ovarian) was 1360 nM. It also gave a TGI (OVCAR-8 ovarian) of over 100000 nM, a GI50 (HT29 colon) of 739 nM and a TGI (HT29 colon) of 2580 nM. For the same compound, the GI50 (TK-10 renal) was over 25600 nM, the TGI (TK-10 renal) was over 100000 nM and the GI50 (OVCAR-3 ovarian) was 1050 nM. For the same compound, the TGI (OVCAR-3 ovarian) was 8550 nM, the GI50 (SR leukemia) was 179 nM and the TGI (SR leukemia) was over 100000 nM. For the same compound, the GI50 (U251 CNS) was 1110 nM, the TGI (U251 CNS) was over 100000 nM and the GI50 (MOLT-4 leukemia) was 710 nM. For the same compound, the TGI (MOLT-4 leukemia) was over 100000 nM, the GI50 (NCI-H23 lung) was 6620 nM and the TGI (NCI-H23 lung) was over 100000 nM. It also gave a GI50 (NCI-H522 lung) of 599 nM, a TGI (NCI-H522 lung) of 2080 nM and a GI50 (HL-60(TB) leukemia) of 579 nM. The TGI (HL-60(TB) leukemia) was 1970 nM, the GI50 (EKVX NSCLC) was 1220 nM and the TGI (EKVX NSCLC) was over 100000 nM. The GI50 (HOP-62 NSCLC) was 633 nM, the TGI (HOP-62 NSCLC) was over 100000 nM and the GI50 (A498 renal) was over 27700 nM. For the same compound, the TGI (A498 renal) was over 100000 nM, the GI50 (SF-295 CNS) was 329 nM and the TGI (SF-295 CNS) was 2460 nM. For the same compound, the GI50 (RXF 393 renal) was 910 nM, the TGI (RXF 393 renal) was 5950 nM and the GI50 (T-47D breast) was 575 nM. The TGI (T-47D breast) was over 100000 nM, the GI50 (786-0 renal) was 1190 nM and the TGI (786-0 renal) was over 100000 nM. The GI50 (HS 578T breast) was 1040 nM, the TGI (HS 578T breast) was over 100000 nM and the GI50 (OVCAR-4 ovarian) was 1390 nM. For the same compound, the TGI (OVCAR-4 ovarian) was over 100000 nM, the GI50 (OVCAR-5 ovarian) was 1440 nM and the TGI (OVCAR-5 ovarian) was over 100000 nM. The GI50 (SK-MEL-2 melanoma) was 627 nM, the TGI (SK-MEL-2 melanoma) was 4750 nM and the GI50 (BT-549 breast) was 1290 nM. For the same compound, the TGI (BT-549 breast) was over 100000 nM, the GI50 (UACC-257 melanoma) was 1590 nM and the TGI (UACC-257 melanoma) was over 100000 nM. It also gave a GI50 (MALME-3M melanoma) of 1300 nM, a TGI (MALME-3M melanoma) of over 100000 nM and a GI50 (CCRF-CEM leukemia) of 884 nM. The TGI (CCRF-CEM leukemia) was over 100000 nM, the GI50 (NCI-H460 lung) was 545 nM and the TGI (NCI-H460 lung) was over 100000 nM. For the same compound, the GI50 (SK-OV-3 ovarian) was 1670 nM, the TGI (SK-OV-3 ovarian) was over 100000 nM and the GI50 (COLO 205 colon) was 766 nM. The TGI (COLO 205 colon) was 3000 nM, the GI50 (RPMI-8226 leukemia) was 1140 nM and the TGI (RPMI-8226 leukemia) was over 100000 nM. The GI50 (HOP-92 NSCLC) was 1250 nM, the TGI (HOP-92 NSCLC) was over 100000 nM and the GI50 (SK-MEL-28 melanoma) was 1930 nM. It also gave a TGI (SK-MEL-28 melanoma) of over 100000 nM, a GI50 (ACHN renal) of 1060 nM and a TGI (ACHN renal) of over 100000 nM. For the same compound, the GI50 (UACC-62 melanoma) was 144 nM and the TGI (UACC-62 melanoma) was over 100000 nM.
